Source: US20200368322A1, “METHODS OF IDENTIFYING AND USING AGENTS FOR TREATING DISEASES ASSOCIATED WITH INTESTINAL BARRIER DYSFUNCTION” (Yeda Research and Development Co. Ltd., priority 2018, published 2020)
Entries after “also recorded” stand apart in the source; their conditions may differ.

Legend:
[1] = system: Citrobacter rodentium; assay: Citrobacter rodentium infection (bioluminescence, tissue CFU), Example 1; type: in vivo, mouse
Experimental: (§1) To induce hyperglycemia, streptozotocin (STZ, Sigma-Aldrich) was diluted freshly in PBS and injected i.p. at 100 mg/kg at two consecutive days. Control mice were injected with PBS. Serum glucose measurements were performed using glucose strips (Perrigo). Hyperglycemic mice were used for further experimentation 2-3 weeks after STZ injection). For continuous insulin administration, ALZET osmotic pumps were used. Pumps were implanted subcutaneously in the back of the mice for 4 weeks. Insulin was delivered at 0.25 U/day. 2-deoxyglucose (2-DG) was injected i.p. twice daily at 5 mg per injection as previously described (47). Injections were performed for 10 consecutive days. Leptin antagonist was administered daily by intraperitoneal injection of 25 mg/kg as previously described (18).
Mice were infected by oral gavage with 200 μl of an overnight culture of LB containing approximately 1×10^9 colony-forming units (CFU) of a kanamycin-resistant, luciferase-expressing derivative of C. rodentium DBS100 (ICC180) as previously described (16). For in vivo bioluminescent imaging, mice were anesthetized with Ketamine/Xylazine. Bioluminescence was quantified using an IVIS2000 instrument and Living Image software (Perkin Elmer). For ex vivo luminescence analysis, colons were resected, extensively washed from all fecal matter and immediately imaged. For CFU counts, tissues were collected, weighed and homogenized in 1 ml of sterile PBS. Tissue homogenates were serially diluted in PBS and plated on to LB kanamycin plates, incubated overnight at 37° C., and bacterial colonies were enumerated the following day, normalizing them to the tissue weight.

[2] = system: intestinal microbiota; assay: Taxonomic microbiota analysis (16S rDNA sequencing); type: in vivo, mouse; conditions: hyperglycemic (STZ-treated) mice, insulin treatment
Experimental: Frozen fecal samples were processed for DNA isolation using the MoBio PowerSoil kit according to the manufacturer's instructions. For the 16S rRNA gene PCR amplification, 1 ng of the purified fecal DNA was used for PCR amplification. Amplicons spanning the variable region V3/4 of the 16S rRNA gene were generated by using primers: Fwd 5′-[…]-3′ (SEQ ID NO: 1), Rev 5′-[…]-3′ (SEQ ID NO: 2). The reactions were subsequently pooled and cleaned (PCR clean kit, Promega), and the PCR products were then sequenced on an Illumina MiSeq with 500 bp paired-end reads. The reads were then processed using the QIIME analysis pipeline as described (55, 56). In brief, fasta quality files and a mapping file indicating the barcode sequence corresponding to each sample were used as inputs, reads were split by samples according to the barcode, taxonomical classification was performed using the RDP-classifier, and an OTU table was created. Closed-reference OTU mapping was employed using the Greengenes database. Rarefaction was used to exclude samples with insufficient count of reads per sample. Sequences sharing 97% nucleotide sequence identity in the 16S region were binned into operational taxonomic units (97% ID OTUs). For beta-diversity, unweighted UniFrac measurements were plotted according to the two principal coordinates based on 10,000 reads per sample. […]

[3] = system: microbial pattern recognition receptor (PRR) ligands; assay: Quantification of microbial products at systemic sites (PRR reporter cell lines); type: in vivo, mouse; conditions: STZ-treated mice given the agent (insulin 0.25 U per day; 2-DG i.p. twice daily 5 mg)
Experimental: as §1, with “(18). The following PRR reporter cell lines were obtained from Invivogen (HEK-Blue TLR and NLR reporter cell lines): TLR2, TLR3, TLR4, TLR5, TLR7, TLR9, NOD1, NOD2. Extracts from spleen, liver, and serum were homogenized and added to reporter cell lines incubated with HEK-Blue detection medium (Invivogen) according to the manufacturer's instructions.” for “(18).”

[4] = system: intestinal epithelial adherence junctions; assay: Immunofluorescence staining of colon junctions (E-cadherin, ZO-1); type: in vivo, mouse
Experimental: (§2) Colon samples were extensively washed and fixed and 4% paraformaldehyde. Samples were washed, paraffin-embedded and sectioned. Paraffin sections were de-paraffinized and antigen-retrieved in 10 mM sodium citrate, pH 6. Samples were incubated in PBS containing 20% (v/v) normal horse serum and 0.2% (v/v) Triton X-100 for 1 h; and then incubated over-night with rabbit anti-ZO-1 (Invitrogen 40-2200) primary antibody or rabbit anti E-cadherin (Cell Signaling 24E10). Sections were washed and incubated for 1 hour with alexa 488-conjugated donkey anti Rabbit antibody. Alternatively, sections were stained with Ki67 to indicate proliferating cells.

[5] = Serum glucose measurement; type: in vivo, mouse
Experimental: as §1

[6] = system: intestinal epithelial cells; assay: Epithelial turnover (Ki67 staining, cell viability by flow cytometry); type: in vivo, mouse; conditions: STZ-treated mice vs controls
Experimental: as §2
For viability measurements, isolated intestinal epithelial cells were stained with EpCAM, CD45 and propidium iodide. Cells were analyzed on a BD-LSRFortessa cytometer. All antibodies were obtained from Biolegend.

[7] = Intestinal inflammatory state (H&E staining, colonic cytokine gene expression); type: in vivo, mouse; conditions: STZ-treated mice vs controls
[8] = system: Salmonella Typhimurium; assay: Salmonella Typhimurium infection; type: in vivo, mouse; conditions: STZ-treated mice, oral infection
Experimental: For oral infections, mice were pretreated with 50 mg/ml streptomycin one day prior to oral gavage of 10^8 CFU of SPI-II-deficient Salmonella Typhimurium (49). For systemic infections, mice were injected 10^4 CFU of Salmonella Typhimurium by intraperitoneal injection as previously described (50). One week after infection, colonization was assessed by bacterial plating on LB streptomycin plates, incubated overnight at 37° C., and bacterial colonies were enumerated the following day, normalizing them to the tissue weight.

[9] = system: colonic epithelial barrier; assay: Trans-epithelial flux (Ussing chamber, FITC-dextran); type: in vivo, mouse; conditions: STZ-treated mice, steady-state conditions
Experimental: On the day of the assay, 4 kDa fluorescein isothiocyanate (FITC)-dextran was dissolved in phosphate buffered saline (PBS) to a concentration of 80 mg/ml. Mice were fasted for 4 hours prior to gavage with 150 μl dextran. Mice were anesthetized 3 hours following gavage and blood was collected, centrifuged at 1,000×g for 12 min at 4° C. Serum was collected and fluorescence was quantified at an excitation wavelength of 485 nm and emission wavelength of 535 nm.
Epithelial resistance was measured using an Ussing chamber system (Warner Instruments P2300) according to the manufacturer's instructions. In brief, EasyMount chambers were calibrated, colonic tissue was excised from mice and immediately mounted, and voltage clamp recordings were performed. Tissues were maintained at 37° C. in physiological salt solution throughout the duration of the recording.

[10] = system: Citrobacter rodentium; type: in vivo, mouse; conditions: putrescine plus 30 mg/ml taurine in drinking water
Experimental: For putrescine treatment, mice received putrescine by oral gavage with a dose of 200 mg/kg twice daily for 10 days prior to and during DSS treatment or Citrobacter rodentium infection.
A kanamycin-resistant and luciferase-expressing derivative of Citrobacter rodentium DBS100 (ICC180) was used for infection as previously described (Thaiss et al., Science. 2018 Mar. 23; 359(6382):1376-1383).
Mice were infected with 200 μl solution containing approximately 1×10^9 colony-forming units (CFU) of overnight cultured bacteria by oral gavage. Infection was monitored by enumerating stool CFU and measuring abdominal bioluminescent. For in vivo bioluminescent imaging, mice were anesthetized and bioluminescence was measured using an IVIS2000 instrument and Living Image software (Perkin Elmer). For ex vivo luminescence quantification, the whole colons were dissected, extensively washed from all luminal contents, longitudinally cut open and immediately imaged. For CFU counts, stool or tissues were collected, weighed and homogenized in sterile phosphate buffered saline (PBS−/−). Homogenates were then serially diluted in PBS−/− and plated on LB kanamycin plates, incubated overnight at 37° C. Bacterial CFUs were counted the next day, normalizing them to the stool or tissue weight.

[11] = system: tight junctions of Caco2 cells; assay: Caco2 tight junction morphology (cingulin or ZO-1 staining, tortuosity); type: cell-based, human
Experimental: (§3) CaCo-2 cells were purchased from ATCC. Cells were routinely grown in regular tissue culture medium (DMEM, 10% FCS, penicillin/streptomycin, GlutaMAX). For experiments with differing glucose concentrations, cells were routinely cultured in low-glucose DMEM (1 g/l glucose). Cells were seeded onto 96-well glass-bottom plates coated with either fibronectin or collagen 70 000 cells/well and allowed to grow for 24 hours to form confluent monolayer before indicated treatments.
(§4) For high resolution images of manually selected representative fields, a DeltaVision wide field fluorescent microscope (GE Healthcare) equipped with 40×UPlanFLN or 60×/1.42 PlanApo N oil objective (Olympus) was used. For multi-well plate scanning, the following automated imaging stations were used: DeltaVision microscope with plate scanning regiment, Hermes imaging station (IDEA bio-Medical) or ImagExpress microXL imaging station (Molecular Devices) equipped by 40× air objectives. In all cases in order to cover the curvature of apical surface of epithelial monolayer 5 μm thick z-stack was acquired around the tight junction plane (identified by best focus algorithm) and resulting image was generated as a maximum projection of all optical sections.
Cell images were segmented using Morphological Segmentation ImageJ plug-in and junction tortuosity was calculated as a ratio between junction length and Euclidian distance between its ends.

[12] = system: focal adhesions of Caco2 cells; assay: Caco2 cell-matrix focal adhesions (paxillin staining); type: cell-based, human; conditions: 10 mM acetyl-proline, 1 mM putrescine, 10 mM histamine, 5 mM spermine
Experimental: as §3, §4

[13] = system: Caco2 cells; assay: Traction force microscopy; type: cell-based, human; conditions: Caco2 islands on polyacrylamide hydrogels, 24 hours treatment
Experimental: SoftTrac 6 well plates with pre-made collagen coated 12 kPa hydrogels containing embedded 0.2 μm fluorescent beads were purchased from Matrigen. 200,000 cells per well were plated and allowed to grow for 24 hours to form epithelial islands, treated with the indicated metabolite for another 24 hours and live-imaged using DeltaVision microscope equipped with environmental chamber. After acquisition of cell and fluorescent bead images in steady state conditions, cells were detached with trypsin and imaging of beads was repeated in a relaxed state. Displacement map generation and force calculations were performed using MatLab script described in Butler et al. Am J Physiol Cell Physiol. 2002.

[14] = system: Caco2 cells; conditions: 10 mM histamine
Experimental: For immunofluorescent staining, cells were permeabilized with 0.5% Triton ×100 in 3% paraformaldehyde for 3 minutes and fixed with 3% paraformaldehyde for an additional 30 minutes. Tight junction labeling was performed with either rabbit anti-cingulin antibodies or with anti-zo1 mouse monoclonal antibodies (BD Transduction Laboratories). Focal adhesions were labeled with either anti-paxillin mouse monoclonal antibodies (BD Transduction Laboratories) or with anti-zyxin rabbit polyclonal antibodies. Adherens junctions were labeled with anti-β-catenin rabbit polyclonal antibodies (Sigma). The following secondary, fluorescently labeled antibodies (Invitrogen) were used: Alexa Fluor 488 goat anti-mouse or anti-rabbit antibodies for tight junction visualization and Alexa Fluor 647 goat anti-mouse or anti-rabbit antibodies for focal adhesions or adherens junctions visualization. Actin was labeled with TRITC-phalloidin (Sigma) and nuclei with DAPI.

[15] = mice treated with the agent alone

Compound: insulin
- enhanced C. rodentium growth and pathogenic translocation / host defense against C. rodentium ([1]; STZ-treated mice given the agent (insulin 0.25 U per day; 2-DG i.p. twice daily 5 mg)): prevented
- taxonomic change in the configuration of the intestinal microbiota [2]: corrected
- systemic dissemination of microbial products [3]: prevented
- loss of adherence junction integrity ([4]; STZ-treated mice given the agent): prevented
- serum glucose levels ([5]; STZ-treated mice, 0.25 U per day insulin via pumps for 4 weeks): restored normoglycemic levels

Compound: CN(N=O)C(=O)N[C@H]1C(O)O[C@H](CO)[C@@H](O)[C@@H]1O (mixture of isomers) [STZ, streptozotocin]
- epithelial proliferation or cell death [6]: not affected
- C. rodentium infection and systemic spread [1, 15]: severe C. rodentium infection and systemic translocation
- inflammatory state in the intestine [7]: did not provoke an overt inflammatory state
- intestinal luminal growth of Salmonella [8]: comparable to vehicle-treated controls
- systemic colonization by Salmonella [8]: enhanced systemic colonization
- intestinal epithelial adherence junctions ([4]; STZ-treated mice, steady-state conditions): dysfunction of intestinal epithelial adherence junctions
- trans-epithelial flux [9]: enhanced trans-epithelial flux
- blood glucose levels [5, 15]: hyperglycemia was induced

Compound: NCCS(=O)(=O)O [taurine]
- disruptive effect of putrescine in mice with C. rodentium infection [10]: restoration of the disruptive effect of putrescine
- recovery of TJ structure on replacement of disruptors with stabilizer ([11]; CaCo2 cells pretreated with LPS, histamine or putrescine, even in the presence of the disruptors): full recovery of TJ structure
- effect on tight junctions in metabolite screen ([11]; Caco2 cells): Stabilization
- tight junction distortion caused by LPS ([11]; Caco2 cells, 10 mM taurine, 1 mM tryptamine, 10 mM L-homo-serine, in combination with LPS): abolish tight junction distortion caused by LPS treatment alone

Compound: NCCc1c[nH]cn1 [histamine]
- focal adhesions size [12]: increase of focal adhesions size
- forces applied to the substrate (cell contractility) [13]: increases cell contractility
- recovery of the TJs after washout ([11]; CaCo2 cells pretreated 24 hrs with disruptor, then regular culture medium for 24 hours): nearly complete recovery of the TJs
- TJ structure after disruptor treatment ([11]; CaCo2 cells, 24 hrs, LPS 300 ng/ml, Histamine 10 mM, putrescine 1 mM): pronounced TJ disruption
- effect on tight junctions in metabolite screen ([11]; Caco2 cells): Disruption
- tight junction disruption phenotype (type 1 zipper-like, type 2 flower-like) ([11]; Caco2 cells, known IBD mediators): type 2
- tight junction morphology ([11]; Caco2 cells, 10 mM acetyl-proline, 1 mM putrescine, 10 mM histamine, 5 mM spermine): distortion of tight junctions geometry; also recorded: distortion of tight junction morphology
- tight junction phenotype in combination with LPS ([11]; Caco2 cells, type 2 disruptor plus LPS): double effect
- apical actin-enriched structures [14]: assembly of actin fibers in the same plane where tight junctions are located
